In BigSolDB 2.1:

O=c1[nH]c2ccccc2n1CCCN1CCC(n2c(=O)[nH]c3cc(Cl)ccc32)CC1
solubility (mole fraction)
Conditions | 293.15 K | 298.15 K | 323.15 K | 328.15 K | 333.15 K
in DMF | – | – | 0.000679 | 0.000791 | 0.000911
in DMSO | – | – | 0.00142 | 0.00171 | 0.00209
in isopropanol | 1.85e-05 | 2.29e-05 | 6.48e-05 | 7.7e-05 | 8.99e-05
in water | – | – | 6.38e-07 | 7.73e-07 | 9.34e-07
